Assay results from US9034866B2 (Genentech, Inc., priority 2012, dated 2015).
Like-named read-outs stand apart in the source and are kept apart here.

Assays:
[1] = target: nuclear factor-kappa B (NF-kB)-inducing kinase (NIK) (Homo sapiens (Human), UniProt Q99558); test: NIK Enzyme Inhibition Assay (Transcreener ADP fluorescence polarization); format: biochemical; details: read-out: NIK ADP-FP (Ki uM)
Procedure, shortened: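 Fluorescence-polarization ADP detection (tracer displacement, 633 nm excitation) read after EDTA/Brij quench. Reaction: 0.2-1 nM insect-cell-derived NIK, 10 uM ATP, HEPES pH 7.2 with MgCl2 and DTT, 1% DMSO, 1-3.5 h with compounds.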

[2] = test system: REL-A (p65) nuclear translocation in HeLa cells; test: REL-A nuclear translocation assay (classical NF-kB signaling), high content imaging; format: cell-based; details: Homo sapiens, HeLa, compounds 4.5 hours, then 10 ng/mL TNF-α for 30 minutes, read-out: REL-A HeLa Transloc Assay (IC50)
Procedure, shortened: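 HeLa cells in 10% FBS medium preincubated with compounds (0.2% DMSO final) for 4.5 hours, then stimulated with 10 ng/mL TNF-α for 30 minutes. Fixed cells stained with 400 ng/mL anti-REL-A antibody, Alexa488 secondary and DRAQ5; translocation quantified by imaging as nuclear to cytoplasmic signal ratio.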

[3] = test system: p52 (NF-kB2) nuclear translocation in HeLa cells; test: p52 nuclear translocation assay (non-classical NF-kB signaling), high content imaging; format: cell-based; details: Homo sapiens, HeLa, 5 h, 100 ng/mL anti-lymphotoxin beta receptor antibody for 5 hours, read-out: p52 HeLa Transloc Assay (IC50)
Procedure, shortened: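 HeLa cells in 10% FBS medium were treated with compound (0.2% DMSO final), then stimulated 5 h with 100 ng/mL anti-lymphotoxin beta receptor antibody. After fixation, cells were immunostained for p52 (2 ug/mL antibody) with DRAQ5 nuclear stain and imaged by high-content imaging. IC50 in µM was derived from the nuclear/cytoplasmic signal ratio.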

[4] = purified NIK 0.2-1 nM, 10 uM ATP, Morrison's quadratic equation

nuclear factor-kappa B (NF-kB)-inducing kinase (NIK), sequence (Q99558 whole entry): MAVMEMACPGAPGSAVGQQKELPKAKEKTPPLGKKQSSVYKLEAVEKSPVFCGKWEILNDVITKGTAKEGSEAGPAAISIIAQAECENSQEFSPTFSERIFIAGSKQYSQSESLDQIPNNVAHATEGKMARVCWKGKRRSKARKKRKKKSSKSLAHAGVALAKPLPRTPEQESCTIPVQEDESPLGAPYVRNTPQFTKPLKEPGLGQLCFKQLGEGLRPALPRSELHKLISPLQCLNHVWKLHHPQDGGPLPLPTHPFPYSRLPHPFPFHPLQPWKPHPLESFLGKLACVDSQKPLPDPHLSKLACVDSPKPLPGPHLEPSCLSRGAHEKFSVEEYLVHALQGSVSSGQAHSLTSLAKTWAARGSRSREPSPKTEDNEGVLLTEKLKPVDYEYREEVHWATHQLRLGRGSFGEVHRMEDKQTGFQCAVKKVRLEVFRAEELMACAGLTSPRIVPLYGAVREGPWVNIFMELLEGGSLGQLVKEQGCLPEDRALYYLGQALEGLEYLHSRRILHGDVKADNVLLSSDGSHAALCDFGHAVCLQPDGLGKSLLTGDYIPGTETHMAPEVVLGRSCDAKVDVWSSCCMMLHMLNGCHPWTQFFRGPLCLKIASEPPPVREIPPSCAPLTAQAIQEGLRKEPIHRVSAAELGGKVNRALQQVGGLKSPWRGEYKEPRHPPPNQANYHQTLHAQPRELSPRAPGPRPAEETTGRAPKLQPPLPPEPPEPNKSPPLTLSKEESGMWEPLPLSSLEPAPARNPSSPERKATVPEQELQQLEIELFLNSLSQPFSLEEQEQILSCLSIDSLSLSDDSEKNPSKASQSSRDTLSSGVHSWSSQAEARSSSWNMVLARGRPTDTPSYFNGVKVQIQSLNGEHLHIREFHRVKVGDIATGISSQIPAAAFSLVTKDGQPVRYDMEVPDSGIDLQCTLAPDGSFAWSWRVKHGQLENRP

Structure (SMILES) | Ki [1, 4] | IC50 [2] | IC50 [3] | Ki [1]
Cc1cc([C@](C)(O)C#Cc2cc3c(cc2F)C2CC(C2)n2c-3nc(C(N)=O)c2-c2cnn(CC(C)(C)O)c2)no1 (racemic) | 0.00071 µM | > 20 µM | 1.9 µM | –
Cc1cc([C@](C)(O)C#Cc2ccc3c(c2)-c2nc(C(N)=O)sc2CCO3)no1 [Example 7, 9-[(R)-3-hydroxy-3-(5-methyl-isoxazol-3-yl)-but-1-ynyl]-4,5-dihydro-6-oxa-3-thia-1-aza-benzo[e]azulene-2-carboxylic acid amide] | 0.0002 µM | 20 µM | 0.0395 µM | –
CN1CC[C@@](O)(C#Cc2cc3c(cc2F)C2CC(C2)n2c-3nc(C(N)=O)c2C(C)(C)O)C1=O [Example 327, 9-fluoro-3-(1-hydroxy-1-methyl-ethyl)-10-[2-[(3R)-3-hydroxy-1-methyl-2-oxo-pyrrolidin-3-yl]ethynyl]-5,6,7,12-tet-rahydro-5,7-methanobenzo[c]imidazo[1,2-a]azepine-2-carboxamide] | 0.00685 µM | > 20 µM | 7.8 µM | –
CNC(=O)c1c(C(N)=O)nc2n1CCOc1ccc(C#CC3(O)CCC3)cc1-2 | 0.0022 µM | > 20 µM | 0.727 µM | –
CN1CCC(O)(C#Cc2cc3c(cc2F)OCCc2sc(C(N)=O)nc2-3)C1=O (stereo not drawn) | 0.00053 µM | > 20 µM | 0.45 µM | –
CNC(=O)c1c(C(N)=O)nc2n1CCOc1cc(F)c(C#C[C@@](C)(O)c3cc(C)on3)cc1-2 [Example 99, 8-fluoro-9-[(R)-3-hydroxy-3-(5-methyl-isoxazol-3-yl)-but-1-ynyl]-4,5-dihydro-6-oxa-1,3a-diaza-benzo[e]azulene-2,3-di-carboxylic acid 2-amide 3-methylamide] | – | 20 µM | 0.0625 µM | 0.001 µM
NC(=O)c1cn2c(n1)-c1cc(C#CC3(O)CCNC3=O)c(F)cc1OCC2 (racemic) | 0.0032 µM | > 20 µM | 16 µM | –
CN1CC[C@@](O)(C#Cc2ccc3c(c2)-c2nc(C(N)=O)c(C(F)(F)F)n2CCO3)C1=O | 0.00072 µM | > 20 µM | 0.442 µM | –
Cc1cc([C@](C)(O)C#Cc2cc3c(cc2F)C2CC(C2)c2[nH]c(C(N)=O)nc2-3)no1 | 0.0002 µM | > 20 µM | 0.477 µM | –
CNC(=O)c1c(C(N)=O)nc2n1C1CC(C1)c1cc(F)c(C#CC3(O)CCCC3)cc1-2 | 0.00012 µM | > 20 µM | 0.375 µM | –
Cc1cc([C@](C)(O)C#Cc2ccc3c(c2)-c2nc(C(N)=O)c(CC4(C)COC4)n2C2CC3C2)no1 (racemic) | 0.0012 µM | > 20 µM | 0.74 µM | –
CNC(=O)c1c(C(N)=O)nc2n1C1CC(C1)c1ccc(C#C[C@@](C)(O)c3cc(C)on3)cc1-2 (racemic) | 0.00061 µM | 1.8 µM | 1.3 µM | –
C[C@@](O)(C#Cc1cc2c(cc1F)C1CC(C1)c1[nH]c(C(N)=O)nc1-2)c1ncccn1 | 0.0026 µM | > 20 µM | 1.7 µM | –
CNC(=O)c1c(C(N)=O)nn2c1CCOc1ccc(C#C[C@]3(O)CCN(C)C3=O)cc1-2 (racemic) [Example 514] | 0.0012 µM | > 20 µM | 0.543 µM | –
Cc1cc([C@](C)(O)C#Cc2ccc3c(c2)-c2nc(C(N)=O)c(CN4CCOCC4)n2CCO3)no1 [Example 103, 9-[(R)-3-hydroxy-3-(5-methyl-isoxazol-3-yl)-but-1-ynyl]-3-morpholin-4-ylmeth-yl-4,5-dihydro-6-oxa-1,3a-diaza-ben-zo[e]azulene-2-carboxylic acid amide] | 0.002 µM | 20 µM | 0.104 µM | –

Continued, in another order:

Ki [1, 4] | IC50 [2] | Structure (SMILES) | IC50 [3] | Ki [1]
0.012 µM | > 20 µM | Cc1c(C(N)=O)nc2n1C1CC(C1)c1cc(F)c(C#C[C@@](C)(O)c3ncccn3)cc1-2 [Example 321, 9-fluoro-10-[(3R)-3-hydroxy-3-pyrim-idin-2-yl-but-1-ynyl]-3-methyl-5,6,7,12-tet-rahydro-5,7-methanobenzo[c]imidazo[1,2-a]azepine-2-carboxamide] | 3 µM | –
0.00127 µM | > 20 µM | Cc1cc([C@](C)(O)C#Cc2cc3c(cc2F)OCCn2c-3nc(C(N)=O)c2-c2cnn(CC(C)(C)O)c2)no1 (racemic) | 1.8 µM | –
0.002 µM | 20 µM | CNC(=O)c1c(C(N)=O)nc2n1CCOc1ccc(C#C[C@@](C)(O)c3noc(C)n3)cc1-2 [Example 98, 9-[(R)-3-hydroxy-3-(5-methyl-[1,2,4]ox-adiazol-3-yl)-but-1-ynyl]-4,5-dihydro-6-oxa-1,3a-diaza-benzo[e]azulene-2,3-di-carboxylic acid 2-amide 3-methylamide] | 0.237 µM | –
0.0024 µM | > 20 µM | CC(C)(O)C#Cc1ccc2c(c1)-c1nc(C(N)=O)c(-c3nc(C4CC4)n[nH]3)n1CCO2 (racemic) | 0.594 µM | –
0.0013 µM | > 20 µM | CC(C)(O)C#Cc1cc2c(cc1F)C1CC(C1)n1c-2nc(C(N)=O)c1-c1nc(C2CC2)n[nH]1 | 3.6 µM | –
0.0015 µM | > 20 µM | Cn1nccc1C(O)c1c(C(N)=O)nc2n1CCOc1cc(F)c(C#CC(C)(C)O)cc1-2 (racemic) | 2.4 µM | –
0.0057 µM | 5.6 µM | Cc1cc([C@](C)(O)C#Cc2cc3c(cc2F)C2CC(C2)n2c-3nc(C(N)=O)c2C(C)(C)O)no1 [Example 326] | 1.2 µM | –
0.0049 µM | > 20 µM | Cc1cc([C@](C)(O)C#Cc2ccc3c(c2)-c2nc(C(N)=O)c(C(F)(F)F)n2CCO3)no1 (racemic) | 4.5 µM | –
0.0087 µM | > 20 µM | Cc1cc(-c2c(C(N)=O)nc3n2CCOc2cc(F)c(C#C[C@@](C)(O)c4noc(C)n4)cc2-3)[nH]n1 | 2.5 µM | –
0.0078 µM | > 20 µM | Cn1c(C(N)=O)nc2c1C1CC(C1)c1cc(F)c(C#CC(C)(C)O)cc1-2 | 0.286 µM | –
0.0007 µM | > 20 µM | Cc1nc([C@](C)(O)C#Cc2cc3c(cc2F)C2CC(C2)n2c-3nc(C(N)=O)c2C)no1 | 1.1 µM | –
0.0095 µM | > 20 µM | CC(C)(O)C#Cc1cc2c(cc1F)C1CC(C1)n1c-2nc(C(N)=O)c1C(F)(F)F | 2.6 µM | –
